Tests used:
[1] = system: gephE; experiment: µSPOT peptide microarray binding assay with recombinant gephE
[2] = system: FL-geph; experiment: µSPOT peptide microarray binding assay with full-length geph
[3] = system: native geph; experiment: µSPOT peptide microarray binding assay with native geph from mouse brain lysate
Description: Preparation of Mouse Tissue Lysates
Whole mouse brains were obtained from C57BL/6J mice at >4 weeks of age and 80 immediately flash frozen in liquid N2. Tissue of mRFP-gephyrin knock-in animals of 1 year of age (provided by Christian Specht, IBENS, Paris) was processed the same way. Before lysis, whole mouse brains were weighted and cut into four pieces along the coronal and sagittal axis. For preparation of one lysate, two diagonally opposite pieces were transferred into a 1.5 mL reaction tube (Sarsted). Lysis was carried out on ice in 400 µL RIPA lysis buffer (150 mM 85 NaCl, 50 mM Tris-HCl (pH=8), 1% Nonident P-40 substitute, 0.5% DOC, 0.1% SDS (all v/v)), to which Ethylenediaminetetraacetic acid (5 mM end concentration) and 1 mini tablet of ROCHE complete protease inhibitor per 10 mL was added immediately before use, by hand crushing the brain material with a hand pestle in a 1.5 mL reaction tube. Lysis was completed by 1 min sonification on ice with a Sartorius Labsonic M Sonificator at 20% amplitude with 90 care to avoid heating the suspensions. Finally, Lysates were centrifuged for 15 min at 17,200×g and 4 °C. The SN was subsequently collected, transferred to a new 1.5 mL reaction tube, flash frozen in liquid N2 and stored at -80 °C until use.
95 µSPOT slides were blocked by incubation with 2.5 mL 2% (w/v) IGG free bovine serum

[4] = µSPOT peptide microarray, GlyRβ full positional scan, recombinant gephE, intensity normalised to wild-type sequence DLRSNDFSIVGSLPR (=1)
[5] = µSPOT peptide microarray, GlyRβ full positional scan, intensity normalised to wild-type sequence DLRSNDFSIVGSLPR (=1)
[6] = µSPOT peptide microarray, GlyRβ full positional scan, native geph from mouse brain lysate, intensity normalised to wild-type sequence DLRSNDFSIVGSLPR (=1)
[7] = µSPOT full positional scan of GlyRβ 15-mer DLRSNDFSIVGSLPR, intensity normalised to wild-type sequence (= 1)
[8] = µSPOT full positional scan of GlyRβ 15-mer DLRSNDFSIVGSLPR, native geph, intensity normalised to wild-type sequence (= 1)

Sequence | gephE Binding Intensity [norm.] [1, 4] [norm.] | Fl-geph Binding Intensity [norm.] [2, 5] [norm.] | Native geph Binding Intensity [norm.] [3, 6] [norm.] | gephE Binding Intensity [norm.] [1, 7] [norm.] | Fl-geph Binding Intensity [norm.] [2, 7] [norm.] | Native geph Binding Intensity [norm.] [3, 8] [norm.]
DDRSNDFSIVGSLPR [GlyRβ_Full_Positional_Scan_030] | 1.07 | 1.26 | 0.9 |  |  | 
DLRRNDFSIVGSLPR [GlyRβ_Full_Positional_Scan_072] | 0.97 | 1.06 | 1.25 |  |  | 
DLRSNDFSIVGSLPT [GlyRβ_Full_Positional_Scan_296] |  |  |  | 0.87 | 1.37 | 1.56
DLRSNDGSIVGSLPR [GlyRβ_Full_Positional_Scan_122, GlyR β 414-428 variant F420G] | 0.49 | 0.55 | 0.37 |  |  | 
DLASNDFSIVGSLPR [GlyRβ_Full_Positional_Scan_041] | 0.95 | 1.13 | 1.3 |  |  | 
DNRSNDFSIVGSLPR [GlyRβ_Full_Positional_Scan_039] | 0.96 | 0.98 | 1.18 |  |  | 
DLRMNDFSIVGSLPR [GlyRβ_Full_Positional_Scan_078] | 1.02 | 1.08 | 1.07 |  |  | 
DLGSNDFSIVGSLPR [GlyRβ_Full_Positional_Scan_042] | 0.93 | 1.02 | 1.26 |  |  | 
DLRSNDFSIVGSLPM [GlyRβ_Full_Positional_Scan_298] |  |  |  | 0.9 | 1.34 | 1.42
DLRSNDFSEVGSLPR [GlyRβ_Full_Positional_Scan_171, GlyR β 414-428 variant I422E] | 0.24 | 0.25 | 0.13 |  |  | 
DLRSNDFSIVGGLPR [GlyRβ_Full_Positional_Scan_222] |  |  |  | 0.75 | 0.99 | 0.86
DLRSNDFSTVGSLPR [GlyRβ_Full_Positional_Scan_176, GlyR β 414-428 variant I422T] | 0.53 | 0.95 | 0.31 |  |  | 
DLRSNDFSIFGSLPR [GlyRβ_Full_Positional_Scan_187, GlyR β 414-428 variant V423F] | 0.64 | 0.7 | 0.43 |  |  | 
DLRSNDFSIVGILPR [GlyRβ_Full_Positional_Scan_223] |  |  |  | 0.62 | 1.05 | 0.45
DLRSNDFSIVGKLPR [GlyRβ_Full_Positional_Scan_234] |  |  |  | 0.81 | 0.96 | 0.47

From PMC7753147, “High-throughput determination of protein affinities using unmodified peptide libraries in nanomolar scale” (iScience, 2020)
